No end group written: not given here.
Key:
[1] = Stability to protease degradation in human serum; details: 37°C, different periods of time up to 24 h, triplicate; for stability in human serum (percentage of intact peptide), shuttles associated to the cargo PP2A/SET, compared to the shuttle without cargo: MS (MALDI-TOF)
Protocol: We further analyzed the stability to proteases degradation of the shuttles in human serum upon incubation at 37°C for different periods of time. All the shuttles were incubated with human serum and the resistance to proteases degradation analyzed by HPLC-MS.
Figure 7 Stability of the new generated shuttles in human serum (A) The shuttles were incubated at 37°C in human serum for different periods of time and their integrity (percentage of intact peptide) was analyzed by mass spectrometry (MS). Every measurement was performed in triplicate. Standard deviation is shown. (B) The shuttles Tat, Penetatin and R8 were incubated as above and the integrity was analyzed by MS. Every measurement was performed in triplicate.
For this, the new generated bi-functional peptides (shuttles associated to the cargo PP2A/SET) were incubated with human serum for different periods of time.
Figure 9 Stability in human serum of the shuttles associated to a cargo (PP2A/SET binding site) The shuttles associated to the cargo PP2A/SET were incubated at 37°C in human serum for different periods of time and their integrity (percentage of intact peptide) was analyzed by mass spectrometry (MS). Measurements were performed in triplicate and standard deviation is shown.
Peptides were incubated at 37°C in 250 ml of human serum for different periods of time. Samples were collected and peptides degradation stopped by freezing. Peptides were extracted from samples using the Proteo Miner Protein Enrichment System (Bio-Rad). Peptide integrity (percentage of intact peptide) was analyzed by mass spectrometry (MS) using MALDI-TOF (Brucker Autoflex II) following their standard protocols. Measurements were performed in triplicate. MS data were analyzed using appropriate software (Clinprot tools, Flex analysis, Brucker).

[2] = cited from earlier work
Excerpt: Electrostatic interactions between the […] in the cell membrane surface are important for the internalization. […] When tryptophan residues were replaced by leucine residues, the peptide was not internalized.

[3] = cited from earlier work; remark: listed apart in the source
Excerpt: We have recently published the use of a CPP named Mut3DPT [15, 16]. […] We decided to generate new CPPs with enhanced penetration and stability, compared to the original Mut3DPT shuttle and keeping equilibrium among penetration, solubility and toxicity.

Molecule	stability in human serum (percentage of intact peptide), shuttles associated to the cargo PP2A/SET, compared to the shuttle without cargo [1]	other results
N=C(N)NCCC[C@H](NC(=O)[C@H](CCCNC(=N)N)NC(=O)[C@H](CCCNC(=N)N)NC(=O)[C@H](CCCNC(=N)N)NC(=O)[C@H](CCCNC(=N)N)NC(=O)[C@H](CCCNC(=N)N)NC(=O)[C@H](CCCNC(=N)N)NC(=O)[C@@H](N)CCCNC(=N)N)C(=O)O [R8]	–	stability in human serum (percentage of intact peptide), shuttles without cargo ([1]; MS (MALDI-TOF; text HPLC-MS)): degraded by serum proteases and almost not detected by HPLC-MS upon 24 h of incubation
KKKKKWKKWKKKETVTLLVALKVRYRERIT [Mut7DPT-PP2A/SET]	does not significantly modify the stability	–
KKWKKWKKWKKETVTLLVALKVRYRERIT [Mut5DPT-PP2A/SET]	slightly degradation upon 24 h	–
RRWRRWRRWRRETVTLLVALKVRYRERIT [Mut6DPT-PP2A/SET]	does not significantly modify the stability	–
RRWWRRWRR [RW9, literature CPP RW9 (…)]	–	cellular uptake / internalization [2]: good cellular uptake
VKKKKIKAEIKI [Mut3DPT]	–	resistance to protease degradation [3]: favourable parameters of resistance to protease degradation

Source: publication PMC5814186, “Identification and characterization of novel enhanced cell penetrating peptides for anti-cancer cargo delivery” (Oncotarget, 2017)
